Data as given in ChEMBL document CHEMBL1131425 (J Med Chem, 1998).

Tests used:
[1] = biological target: T1, 5-hydroxytryptamine receptor 2C (Rattus norvegicus, UniProt P08909); test: Binding affinity against rat 5-hydroxytryptamine 2C receptor in A-9 cells.; assay type: cell-based
T1 sequence (P08909 whole entry): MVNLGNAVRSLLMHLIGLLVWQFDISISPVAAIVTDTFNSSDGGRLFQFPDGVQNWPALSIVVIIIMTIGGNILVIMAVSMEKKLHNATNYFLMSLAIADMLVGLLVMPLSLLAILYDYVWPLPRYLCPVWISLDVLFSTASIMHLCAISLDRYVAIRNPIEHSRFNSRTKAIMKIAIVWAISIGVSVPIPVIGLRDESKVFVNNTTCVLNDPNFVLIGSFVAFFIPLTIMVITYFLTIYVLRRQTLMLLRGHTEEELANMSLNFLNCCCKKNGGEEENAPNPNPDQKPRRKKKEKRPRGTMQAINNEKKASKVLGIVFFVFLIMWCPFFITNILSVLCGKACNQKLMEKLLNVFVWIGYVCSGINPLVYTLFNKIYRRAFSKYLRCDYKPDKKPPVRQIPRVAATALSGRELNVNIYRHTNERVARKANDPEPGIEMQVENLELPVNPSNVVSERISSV

[2] = biological target: T2, 5-hydroxytryptamine receptor 1A (Rattus norvegicus, UniProt P19327); test: Binding affinity against rat 5-hydroxytryptamine 1A receptor in CHO cells.; assay type: cell-based
T2 sequence (P19327 whole entry): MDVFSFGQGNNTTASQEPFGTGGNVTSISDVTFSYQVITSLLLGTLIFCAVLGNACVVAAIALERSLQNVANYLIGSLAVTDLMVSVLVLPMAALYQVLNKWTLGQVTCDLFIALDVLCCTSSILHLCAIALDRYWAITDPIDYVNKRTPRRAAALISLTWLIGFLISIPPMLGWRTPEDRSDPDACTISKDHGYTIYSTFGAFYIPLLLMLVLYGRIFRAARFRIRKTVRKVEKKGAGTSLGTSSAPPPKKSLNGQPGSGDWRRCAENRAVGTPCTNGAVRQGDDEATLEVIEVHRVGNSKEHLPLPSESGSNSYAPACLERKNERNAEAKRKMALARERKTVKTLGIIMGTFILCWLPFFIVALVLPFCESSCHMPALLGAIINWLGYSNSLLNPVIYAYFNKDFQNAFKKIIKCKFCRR

[3] = biological target: 5-hydroxytryptamine receptor 2A (Rattus norvegicus, UniProt P14842); test: Binding affinity against rat 5-hydroxytryptamine 2A receptor in NIH3T3 cells.; assay type: cell-based
D(2) dopamine receptor = D(2) dopamine receptor (Rattus norvegicus, UniProt P61169); test: Binding affinity against rat Dopamine receptor D2.
D(2) dopamine receptor, sequence (P61169 whole entry): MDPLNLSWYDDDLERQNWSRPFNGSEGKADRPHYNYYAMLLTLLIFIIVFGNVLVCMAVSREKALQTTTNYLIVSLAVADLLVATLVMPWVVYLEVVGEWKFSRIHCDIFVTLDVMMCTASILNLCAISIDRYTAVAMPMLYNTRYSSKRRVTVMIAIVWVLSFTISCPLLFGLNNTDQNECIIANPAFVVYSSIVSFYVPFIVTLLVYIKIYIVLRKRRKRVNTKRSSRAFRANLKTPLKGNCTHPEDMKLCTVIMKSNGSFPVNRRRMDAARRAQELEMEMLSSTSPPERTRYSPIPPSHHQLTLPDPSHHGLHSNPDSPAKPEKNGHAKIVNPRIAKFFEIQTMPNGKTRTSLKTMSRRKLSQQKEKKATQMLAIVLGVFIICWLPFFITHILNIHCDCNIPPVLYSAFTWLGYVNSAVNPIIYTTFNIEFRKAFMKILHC

5-hydroxytryptamine receptor 2A, sequence (P14842 whole entry): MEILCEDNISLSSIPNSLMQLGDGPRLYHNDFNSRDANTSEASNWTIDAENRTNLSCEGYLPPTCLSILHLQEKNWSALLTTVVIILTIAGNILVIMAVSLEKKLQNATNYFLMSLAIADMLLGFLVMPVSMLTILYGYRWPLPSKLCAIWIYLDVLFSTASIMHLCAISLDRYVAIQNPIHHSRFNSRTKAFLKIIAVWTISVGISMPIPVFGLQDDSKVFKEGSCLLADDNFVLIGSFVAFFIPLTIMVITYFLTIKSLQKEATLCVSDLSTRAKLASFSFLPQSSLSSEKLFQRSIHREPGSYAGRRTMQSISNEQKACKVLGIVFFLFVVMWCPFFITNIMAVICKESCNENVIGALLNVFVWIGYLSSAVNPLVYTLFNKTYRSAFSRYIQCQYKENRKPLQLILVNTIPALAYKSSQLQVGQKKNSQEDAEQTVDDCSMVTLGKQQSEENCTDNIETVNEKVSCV

SMILES | Ki [1] [nM] | Ki [2] [nM] | Ki [3] [nM] | Ki (D(2) dopamine receptor) [nM]
O=C(CCCN1CCC2(CC1)NCNC2=O)c1ccc(F)cc1 | > 10000 | > 10000 | 5600 | 
CN1CN(C)C2(CCN(CCCC(=O)c3ccc(F)cc3)CC2)C1=O | > 10000 | > 10000 | 45 | 300
CN1CN(Cc2ccccc2)C(=O)C12CCN(CCCC(=O)c1ccc(F)cc1)CC2 | 1400 | 265 | 22 | 
CC(C)N1CN(C)C2(CCN(CCCC(=O)c3ccc(F)cc3)CC2)C1=O | > 10000 | 6300 | 7 | 46
CNC1(C(N)=O)CCN(CCCC(=O)c2ccc(F)cc2)CC1 | 4480 | > 10000 | 130 | 
CC(C)NC1(C(N)=O)CCN(CCCC(=O)c2ccc(F)cc2)CC1 | 426 | > 10000 | 14 | 400
O=C(CCCN1CCC2(CC1)C(=O)NCN2C1CCCCC1)c1ccc(F)cc1 | 677 |  | 0.7 | 0.7
CCCCN1CN(C)C2(CCN(CCCC(=O)c3ccc(F)cc3)CC2)C1=O | > 10000 | > 10000 | 19 | 13
CN1CNC(=O)C12CCN(CCCC(=O)c1ccc(F)cc1)CC2 | > 10000 | > 10000 | 23 | 220
CCCN1CN(C)C2(CCN(CCCOc3ccc(F)cc3)CC2)C1=O | > 10000 | > 10000 | 19 | 230
CCCN1CN(C)C2(CCN(CCCC(=O)c3ccc(F)cc3)CC2)C1=O | > 10000 | > 10000 | 20 | 130
CN1CNC(=O)C12CCN(CCCOc1ccc(F)cc1)CC2 | > 10000 |  | 35 | 734
CCN1CNC(=O)C12CCN(CCCC(=O)c1ccc(F)cc1)CC2 | > 10000 | 7960 | 170 | 170
CCN1CN(C)C2(CCN(CCCC(=O)c3ccc(F)cc3)CC2)C1=O | > 10000 | > 10000 | 21 | 
NC(=O)C1(NC2CCCCC2)CCN(CCCC(=O)c2ccc(F)cc2)CC1 | 270 | 1610 | 6 | 43
CC(C)N1CNC(=O)C12CCN(CCCC(=O)c1ccc(F)cc1)CC2 | > 10000 | 2340 | 38 | 400
NC(=O)C1(N)CCN(CCCC(=O)c2ccc(F)cc2)CC1 | > 10000 |  | 420 | 
O=C(CCCN1CCC2(CC1)C(=O)NCN2c1ccccc1)c1ccc(F)cc1 [SPIPERONE] |  | 58 |  | 
